In patent US11279733B2, “Peptide antibiotics” (priority 2017, dated 2022):
In brackets after ≈: the same amount, converted by molar mass. Read-outs that look alike come from different tables or passages of the source. Positions of bridges follow the written chain, without caps; N, C: chain ends. Non-standard residues stand in square brackets, D forms with d. Residues, ends and D or L forms follow the SMILES beside them. *: point of attachment. Isonicotinoyl(2-Ph) = O=C(c1ccnc(-c2ccccc2)c1)*; Benzoyl(4-OPh) = O=C(c1ccc(Oc2ccccc2)cc1)*; Benzoyl(4-Ph) = O=C(c1ccc(-c2ccccc2)cc1)*; Decanoyl(3R-OH) = CCCCCCC[C@@H](O)CC(=O)*; dOrn = NCCC[C@@H](N)C(=O)O; dDab = NCC[C@@H](N)C(=O)O; dDap = NC[C@@H](N)C(=O)O; Dab = NCC[C@H](N)C(=O)O; X5 = O=C(CCCCCCCO)*

Key:
P. aeruginosa ATCC 27853 = tested on: P. aeruginosa ATCC 27853
Method in brief: (§1)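 Mid-log cultures grown in Mueller Hinton broth at 37° C were tested by 2-fold broth microdilution at 5×10^5 CFU/mL final. Compounds were dissolved in water and tested over a final range of 32 to 0.015 μg/mL.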

A. baumannii GN_093 PmxR = tested on: A. baumannii GN_093 PmxR
Method in brief: as §1

K. pneumoniae ATCC 13883 = tested on: K. pneumoniae ATCC 13883
Method in brief: as §1

[1] = tested on: P. aeruginosa GN_043, PmxR; details: P. aeruginosa GN_043, PmxR
Method in brief: as §1

[2] = tested on: K. pneumoniae GN_102 PmxR
Method in brief: as §1

E. coli ATCC 25922 = tested on: E. coli ATCC 25922
Method in brief: as §1

[3] = tested on: K. pneumoniae ATCC 700603, MDR
Method in brief: as §1

[4] = tested on: P. aeruginosa GN_105, PmxR
Method in brief: as §1

A. baumannii ATCC 19606 = tested on: A. baumannii ATCC 19606
Method in brief: as §1

[5] = tested on: S. aureus ATCC 25923, MSSA
Method in brief: as §1

[6] = tested on: K. pneumoniae GN_106, PmxR
Method in brief: as §1

[7] = tested on: K. pneumoniae ATCC BAA-2146, NDM-1 pos
Method in brief: as §1

in vitro [8] = details: human
Method in brief: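 HK2 cells were seeded at 2000 per well in DMEM/F12 with 10% FBS and left to attach for 24 h at 37 °C, 5% CO2. They were then exposed for 24 h to 3-fold peptide dilutions starting from 600 μM solutions in quadruplicate. LDH release was read at 450 nm, and CC50 was fitted from dose-response curves.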

in vitro [9] = details: human; remark: listed apart in the source
Method in brief: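 4000 cells/well, 24 h attach (37 °C, 5% CO2); compound 24 h; 5 μM resazurin 2 h, 37 °C; fluorescence ex/em 560/590. CC50 by curve fit.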

in vitro [10] = details: human; remark: listed apart in the source
Protocol: Cytotoxicity of the synthesised peptides was evaluated by comparison with commercially available colistin (polymyxin E), polymyxin B (Sigma chemical Co., St. Louis, Mo., U.S.A.) and synthetic octapeptin C4 by conducting lactate dehydrogenase (LDH) assay. CC50 values calculated based on curve fitting of dose dependent inhibition of cell growth represented the cytotoxicity of the peptide. Human kidney 2 (HK2) cells were seeded as 2000 cells per well in a 384 well cell culture plate in a final volume of 20 μL in DMEM/F12 medium (Invitrogen #11330057), in which 10% of FBS was added. Cells were incubated for 24 hours at 37° C., 5% CO2 to allow cells to attach to the plates. Similar conditions were employed for HEK293 and HepG2 cytotoxicity assays.
Cytotoxicity to HEK293 and HepG2 cells was determined using the resazurin assay (McMillian, M. K.; Li, L.; Parker, J. B.; Patel, L.; Zhong, Z.; Gunnett, J. W.; Powers, W. J.; Johnson, M. D. An improved resazurin-based cytotoxicity assay for hepatic cells; Cell Biol. Toxicol. 2002, 18, 157-173; O'Brien, J.; Wilson, I.; Orton, T.; Pognan, F. Investigation of the Alamar Blue (resazurin) fluorescent dye for the assessment of mammalian cell cytotoxicity. Eur. J. Biochem. 2000, 267, 5421-5426). In brief, HEK293 and HepG2 cells were seeded at 4000 cells/well in black-wall, clear-bottom 384-well plates (Corning, Australia) and incubated for 24 h at 37° C., 5% CO2. Compounds were then added into each well. After 24 h incubation, 5 μM resazurin was added per well and incubated at 37° C. for 2 h. Fluorescence intensity was then read using a Polarstar Omega with excitation/emission 560/590. The data was then analyzed using GraphPad Prism 6 software. CC50 values were determined using GraphPad Prism 6 software (Inc. La Jolla, Calif.).

Row | Structure (SMILES) | MIC P. aeruginosa ATCC 27853 (P. aeruginosa ATCC 27853; ATCC 27853) [µg/mL] | MIC A. baumannii GN_093 PmxR (A. baumannii GN_093 PmxR; GN 093 PmxR) [µg/mL] | MIC K. pneumoniae ATCC 13883 (K. pneumoniae ATCC 13883; ATCC 13883) [µg/mL] | MIC P. aeruginosa GN_043, PmxR [1] [µg/mL] | MIC K. pneumoniae GN_102 PmxR ([2]; GN 102 PmxR) [µg/mL] | MIC E. coli ATCC 25922 (E. coli ATCC 25922; ATCC 25922) [µg/mL] | MIC K. pneumoniae ATCC 700603, MDR ([3]; ATCC 700603) [µg/mL] | MIC P. aeruginosa GN_105, PmxR ([4]; GN 105, PmxR) [µg/mL] | MIC A. baumannii ATCC 19606 (A. baumannii ATCC 19606; ATCC 19606) [µg/mL] | MIC S. aureus ATCC 25923, MSSA ([5]; ATCC 25923) [µg/mL] | MIC K. pneumoniae GN_106, PmxR ([6]; GN 106, PmxR) [µg/mL] | MIC K. pneumoniae ATCC BAA-2146, NDM-1 pos ([7]; ATCC BAA-2146) [µg/mL] | CC50 at 24 h (in vitro [8]) [µM] | CC50 at 24 h (in vitro [9]) [µM] | CC50 at 24 h (in vitro [10]) [µM] | other results
1 | CCCCCCC[C@@H](O)CC(=O)N[C@H](CN)C(=O)N[C@H]1CCNC(=O)[C@H](CC(C)C)NC(=O)[C@H](CCN)NC(=O)[C@H](CCN)NC(=O)[C@H](Cc2ccccc2)NC(=O)[C@@H](CC(C)C)NC(=O)[C@H](CCN)NC1=O [compound 6427, 3(R)OH-nC9CO-D-Dap-cyc[L-Dab-L-Dab-D-Leu-L-Phe-L-Dab-L-Dab-L-Leu]] ({Decanoyl(3R-OH)}-[dDap][Dab][Dab][dL]F[Dab][Dab]L; lactam 2-C) | 4 (≈ 3.88 µM) | 16 (≈ 15.5 µM) | 8 (≈ 7.76 µM) | 4 (≈ 3.88 µM) | 4 (≈ 3.88 µM) | 8 (≈ 7.76 µM) | 8 (≈ 7.76 µM) | 2 (≈ 1.94 µM) | 8 (≈ 7.76 µM) | 32 (≈ 31.1 µM) | 4 (≈ 3.88 µM) | 8 (≈ 7.76 µM) | 123 | > 300 | > 300 | 
2 | CCCCCCC[C@@H](O)CC(=O)N[C@H](CCCN)C(=O)N[C@H]1CCNC(=O)[C@H](CC(C)C)NC(=O)[C@H](CCN)NC(=O)[C@H](CCN)NC(=O)[C@H](Cc2ccccc2)NC(=O)[C@@H](CC(C)C)NC(=O)[C@H](CCN)NC1=O [compound 6428, 3(R)OH-nC9CO-D-Orn-cyc[L-Dab-L-Dab-D-Leu-L-Phe-L-Dab-L-Dab-L-Leu]] ({Decanoyl(3R-OH)}-[dOrn][Dab][Dab][dL]F[Dab][Dab]L; lactam 2-C) | 4 (≈ 3.78 µM) | 16 (≈ 15.1 µM) | 16 (≈ 15.1 µM) | 4 (≈ 3.78 µM) | 2 (≈ 1.89 µM) | 16 (≈ 15.1 µM) | 8 (≈ 7.56 µM) | 4 (≈ 3.78 µM) | 32 (≈ 30.2 µM) | 32 (≈ 30.2 µM) | 4 (≈ 3.78 µM) | 16 (≈ 15.1 µM) | 137 | > 300 | > 300 | 
3 | CC(C)C[C@@H]1NC(=O)[C@H](CCN)NC(=O)[C@H](CCN)NC(=O)[C@H](Cc2ccccc2)NC(=O)[C@@H](CC(C)C)NC(=O)[C@H](CCN)NC(=O)[C@@H](NC(=O)[C@@H](CCN)NC(=O)CCCCCCCO)CCNC1=O [compound 6514, 8OH-nC7CO-D-Dab-cyc[L-Dab-L-Dab-D-Leu-L-Phe-L-Dab-L-Dab-L-Leu]] (X5-[dDab][Dab][Dab][dL]F[Dab][Dab]L; lactam 2-C) |  |  |  | 4 (≈ 3.94 µM) |  |  |  |  |  |  |  |  | > 300 | > 300 | > 300 | MIC P. aeruginosa ATCC 27853 (P. aeruginosa ATCC 27853; P. aeruginosa ATCC 27853): 8 µg/mL (≈ 7.87 µM); MIC A. baumannii GN_093 PmxR (A. baumannii GN_093 PmxR; A. baumannii GN_093 PmxR): >32 µg/mL; MIC K. pneumoniae ATCC 13883 (K. pneumoniae ATCC 13883; K. pneumoniae ATCC 13883): >32 µg/mL; MIC K. pneumoniae GN_102 PmxR ([2]; K. pneumoniae GN_102 PmxR): >32 µg/mL; MIC E. coli ATCC 25922 (E. coli ATCC 25922; E. coli ATCC 25922): >32 µg/mL; MIC K. pneumoniae ATCC 700603, MDR ([3]; K. pneumoniae ATCC 700603, MDR): >32 µg/mL; MIC P. aeruginosa GN_105, PmxR ([4]; P. aeruginosa GN_105, PmxR): >32 µg/mL; MIC A. baumannii ATCC 19606 (A. baumannii ATCC 19606; A. baumannii ATCC 19606): >32 µg/mL; MIC S. aureus ATCC 25923, MSSA ([5]; S. aureus ATCC 25923, MSSA): >32 µg/mL; MIC K. pneumoniae GN_106, PmxR ([6]; K. pneumoniae GN_106, PmxR): >32 µg/mL; MIC K. pneumoniae ATCC BAA-2146, NDM-1 pos ([7]; K. pneumoniae ATCC BAA-2146, NDM-1 pos): >32 µg/mL
4 | CC(C)C[C@@H]1NC(=O)[C@H](CCN)NC(=O)[C@H](CCN)NC(=O)[C@H](Cc2ccccc2)NC(=O)[C@@H](CC(C)C)NC(=O)[C@H](CCN)NC(=O)[C@@H](NC(=O)[C@@H](CCN)NC(=O)c2ccnc(-c3ccccc3)c2)CCNC1=O [compound 6517, 3Phe4-PyCO-D-Dab-cyc[L-Dab-L-Dab-D-Leu-L-Phe-L-Dab-L-Dab-L-Leu]] ({Isonicotinoyl(2-Ph)}-[dDab][Dab][Dab][dL]F[Dab][Dab]L; lactam 2-C) | 2 (≈ 1.9 µM) | >32 | 32 (≈ 30.3 µM) | 1 (≈ 0.948 µM) | >32 | 8 (≈ 7.58 µM) | 8 (≈ 7.58 µM) | 4 (≈ 3.79 µM) | >32 | >32 | 32 (≈ 30.3 µM) | 32 (≈ 30.3 µM) | > 300 | > 300 | > 300 | 
5 | CC(C)C[C@@H]1NC(=O)[C@H](CCN)NC(=O)[C@H](CCN)NC(=O)[C@H](Cc2ccccc2)NC(=O)[C@@H](CC(C)C)NC(=O)[C@H](CCN)NC(=O)[C@@H](NC(=O)[C@@H](CCN)NC(=O)c2ccc(-c3ccccc3)cc2)CCNC1=O [compound 6518, Ph-4-PhCO-D-Dab-cyc[L-Dab-L-Dab-D-Leu-L-Phe-L-Dab-L-Dab-L-Leu]] ({Benzoyl(4-Ph)}-[dDab][Dab][Dab][dL]F[Dab][Dab]L; lactam 2-C) | 2 (≈ 1.9 µM) | >32 | 16 (≈ 15.2 µM) | 2 (≈ 1.9 µM) | >32 | 2 (≈ 1.9 µM) | 8 (≈ 7.59 µM) | 2 (≈ 1.9 µM) | >32 | 32 (≈ 30.4 µM) | 32 (≈ 30.4 µM) | 16 (≈ 15.2 µM) | 180 | > 300 | ≥ 300 | 
6 | CC(C)C[C@@H]1NC(=O)[C@H](CCN)NC(=O)[C@H](CCN)NC(=O)[C@H](Cc2ccccc2)NC(=O)[C@@H](CC(C)C)NC(=O)[C@H](CCN)NC(=O)[C@@H](NC(=O)[C@@H](CCN)NC(=O)c2ccc(Oc3ccccc3)cc2)CCNC1=O [compound 6519, Ph-4-OPhCO-D-Dab-cyc[L-Dab-L-Dab-D-Leu-L-Phe-L-Dab-L-Dab-L-Leu]] ({Benzoyl(4-OPh)}-[dDab][Dab][Dab][dL]F[Dab][Dab]L; lactam 2-C) | 2 (≈ 1.87 µM) | 32 (≈ 29.9 µM) | 16 (≈ 14.9 µM) | 1 (≈ 0.934 µM) | >32 | 2 (≈ 1.87 µM) | 8 (≈ 7.47 µM) | 4 (≈ 3.74 µM) | >32 | 32 (≈ 29.9 µM) | 32 (≈ 29.9 µM) | 16 (≈ 14.9 µM) | 163 | > 300 | > 300 | 
